Reference: patent publication US9902725B2, “Heterocyclic derivatives as RORgamma modulators” (GENFIT, priority 2014, dated 2018)

Legend:
[1] = test system: psoriasis model; conditions: administered by injection; cited from earlier work
[2] = test system: refractory Crohn diseased patients; conditions: phase IIb; cited from earlier work
[3] = test system: MOG-induced EAE mice; assay: MOG-induced EAE in mice, clinical score; assay type: in vivo
Method: 8-10 week old, male C57BL/6 mice were purchased from Janvier Lab (St Berthevin, France) and housed in a specific pathogen free (SPF) animal facility for one week before the start of the studies. Peptide antigen MOG35-55 (Myelin Oligodendrocyte Glycoprotein) ([…], SEQ ID NO:1, Polypeptide group, France) was dissolved in PBS and emulsified with an equal volume of Complete Freund's Adjuvant (CFA) containing 5 mg/mL of mycobacteria and administrated by subcutaneous injection at the dorsal flanks on day 0 at 200 μg/mouse. To ensure induction of reliable EAE, 200 ng of Bordetella pertussis toxin (Sigma) was given via intraperitoneal injection at day 0 and 2 (Cua, Sherlock et al. 2003; Zhang, Gran et al. 2003). Animals were treated with drug beginning 2 days before peptide injection. Animals were randomized into groups for treatment by weight, so that the average weight of each group was similar. The groups were segregated by cage. Compounds according to the invention were suspended in Carboxymethyl Cellulose (CMC) 1% (Sigma) and Tween80 0.1% (Sigma) by sonication and animals were dosed daily by gavage with 10 mL/kg body weight. The daily dose of Cpd. 1 was 30 mg/kg and vidofludimus (reference compound) at 60 mg/kg in protocol 1 to assess IL-17 A and IL-17F secretion from splenocytes ex vivo. In protocol 2, mice were treated with Cpd. 1 at 3 and 10 mg/Kg or T4 compound at 1 and 10 mg/kg daily by gavage to assess the clinical score. Clinical assessment of EAE was performed daily according to the following criteria: 0) no disease, 1) limp tail, 2) weak/partially paralyzed hind legs, 3) completely paralyzed hind legs, 4) complete hind and partial front leg paralysis, and 5) complete paralysis/death. For Cytokine quantifications, mice were euthanized 20 days after EAE induction. Spleen-isolated cells were collected and adjusted to 2×10^6 cells/mL. Cells were cultured in complete RPMI medium (RPMI supplemented with 10% of fetal calf serum, 1% glutamine, and 1% penicillin/streptomycin). Spleen cells were stimulated with MOG (20 μg/mL) (Polypeptide group, France). Cytokine levels were evaluated 48 h later by ELISA (R&D Systems Europe) or HTRF (CisBio, France) in culture supernatants using IL-17A and IL-17-F according to the manufacturer's protocols. The statistical significance was based on Student's t test (p<0.05, unpaired test).

[4] = Microsomal stability, human microsomes (CEREP); assay type: in vitro ADME; conditions: 0.1 μM, 0.1 mg/mL microsomal protein
Method: (§1) All the assays were conducted at CEREP (CEREP, France and USA). Metabolic compound stability was tested in human (CEREP, Ref 607) and mouse (CEREP, Ref: 806) microsomes. Inhibition of human drug-metabolizing cytochromes P450 was tested on the five most commonly responsible enzymes of metabolism of xenobiotics, CYP1A2 (CEREP, Ref 389), CYP2C9 (CEREP, Ref 412), CYP2C19 (CEREP, Ref 390), CYP2D6 (CEREP, Ref 1338) and CYP3A4 (CEREP, Ref 391).
(§2) Briefly, the standard conditions for CEREP's stability assays include incubation of test compound at 0.1 μM with human or mouse microsomes for 60 minutes in duplicate. The protein concentration of microsomes is 0.1 mg/mL. The parent compound is detected by HPLC-MS/MS analysis. The quantity of the parent compound that remains intact upon 60 minutes of microsome exposure (% remaining) is calculated by comparing the peak area of the parent compound at 60 minutes of exposure to the time zero.

[5] = molecular target: CYP3A4 (Homo sapiens, UniProt P08684); assay: CYP inhibition CYP3A4 (CEREP); assay type: in vitro ADME; conditions: single concentration (typically 10 μM)
CYP3A4, sequence (P08684 whole entry): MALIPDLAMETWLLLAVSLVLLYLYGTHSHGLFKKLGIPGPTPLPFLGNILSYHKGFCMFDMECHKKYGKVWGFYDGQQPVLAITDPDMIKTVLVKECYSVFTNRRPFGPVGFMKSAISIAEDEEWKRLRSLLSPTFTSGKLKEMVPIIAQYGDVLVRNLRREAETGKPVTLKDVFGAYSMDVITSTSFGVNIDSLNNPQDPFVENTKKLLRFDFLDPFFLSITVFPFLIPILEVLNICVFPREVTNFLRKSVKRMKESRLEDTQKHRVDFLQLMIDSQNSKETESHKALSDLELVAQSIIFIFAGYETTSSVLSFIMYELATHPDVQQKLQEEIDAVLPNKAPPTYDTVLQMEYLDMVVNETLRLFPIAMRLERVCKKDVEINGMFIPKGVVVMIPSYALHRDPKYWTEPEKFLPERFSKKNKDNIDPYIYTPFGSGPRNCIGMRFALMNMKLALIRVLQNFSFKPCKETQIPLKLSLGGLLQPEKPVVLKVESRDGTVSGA
Method: as §1
(§3) Briefly, CEREP's CYP inhibition assay uses traditional probe substrates, which are specific to individual CYP isoforms. 3-cyano-7-ethoxycoumarin is mainly catalyzed by CYP1A2 and CYP2C19, 3-[2-(N,N-diethyl-N-methylammonium)ethyl]-7-methoxy-4-methylcoumarin for CYP2C9 and CYP2D6 and finally, 7-benzyloxy-4-trifluoromethylcoumarin is pathway catalyzed predominantly by CYP3A4. The inhibition assays were performed with human recombinant CYP isoforms preparations. HPLC MS/MS methods are used to detect metabolites in these assays. Compounds were tested at single concentrations (typically 10 μM) and data were expressed as percent of control inhibition.

[6] = molecular target: T1, CYP1A2 (Homo sapiens, UniProt P05177); assay: CYP inhibition CYP1A2 (CEREP); assay type: in vitro ADME; conditions: human recombinant CYP, single concentration (typically 10 μM)
T1 sequence (P05177 1-516): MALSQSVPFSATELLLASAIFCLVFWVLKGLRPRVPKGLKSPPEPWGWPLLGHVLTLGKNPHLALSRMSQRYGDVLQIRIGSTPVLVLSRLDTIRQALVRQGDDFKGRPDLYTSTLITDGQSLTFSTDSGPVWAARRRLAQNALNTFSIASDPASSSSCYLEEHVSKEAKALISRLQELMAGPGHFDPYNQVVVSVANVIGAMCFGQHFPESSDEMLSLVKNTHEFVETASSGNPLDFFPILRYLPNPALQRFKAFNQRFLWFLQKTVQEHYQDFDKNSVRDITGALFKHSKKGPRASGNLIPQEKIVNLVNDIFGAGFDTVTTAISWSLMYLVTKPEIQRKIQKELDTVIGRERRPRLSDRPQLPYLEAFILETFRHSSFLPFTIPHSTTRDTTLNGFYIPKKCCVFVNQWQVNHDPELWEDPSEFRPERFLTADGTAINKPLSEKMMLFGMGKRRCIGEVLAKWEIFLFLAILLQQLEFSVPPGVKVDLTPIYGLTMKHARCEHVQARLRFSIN
Method: as §1, §3

[7] = molecular target: CYP2C19 (Homo sapiens, UniProt P33261); assay: CYP inhibition CYP2C19 (CEREP); assay type: in vitro ADME; conditions: single concentration (typically 10 μM)
CYP2C19, sequence (P33261 whole entry): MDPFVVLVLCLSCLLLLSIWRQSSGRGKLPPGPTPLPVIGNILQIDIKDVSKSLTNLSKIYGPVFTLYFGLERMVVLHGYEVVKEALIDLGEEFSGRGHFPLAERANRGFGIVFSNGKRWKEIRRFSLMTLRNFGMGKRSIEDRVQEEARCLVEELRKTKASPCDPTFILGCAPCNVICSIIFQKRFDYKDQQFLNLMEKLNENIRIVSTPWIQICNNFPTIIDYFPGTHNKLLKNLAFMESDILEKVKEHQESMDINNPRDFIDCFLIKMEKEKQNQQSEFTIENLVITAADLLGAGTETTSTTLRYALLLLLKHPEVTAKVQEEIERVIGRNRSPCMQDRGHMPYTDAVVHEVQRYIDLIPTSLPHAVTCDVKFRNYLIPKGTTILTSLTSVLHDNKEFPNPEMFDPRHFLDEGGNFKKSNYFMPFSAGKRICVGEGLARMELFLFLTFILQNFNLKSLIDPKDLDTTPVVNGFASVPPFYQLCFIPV
Method: as §1, §3

[8] = molecular target: CYP2C9 (Homo sapiens, UniProt P11712); assay: CYP inhibition CYP2C9 (CEREP); assay type: in vitro ADME; conditions: single concentration (typically 10 μM)
CYP2C9, sequence (P11712 whole entry): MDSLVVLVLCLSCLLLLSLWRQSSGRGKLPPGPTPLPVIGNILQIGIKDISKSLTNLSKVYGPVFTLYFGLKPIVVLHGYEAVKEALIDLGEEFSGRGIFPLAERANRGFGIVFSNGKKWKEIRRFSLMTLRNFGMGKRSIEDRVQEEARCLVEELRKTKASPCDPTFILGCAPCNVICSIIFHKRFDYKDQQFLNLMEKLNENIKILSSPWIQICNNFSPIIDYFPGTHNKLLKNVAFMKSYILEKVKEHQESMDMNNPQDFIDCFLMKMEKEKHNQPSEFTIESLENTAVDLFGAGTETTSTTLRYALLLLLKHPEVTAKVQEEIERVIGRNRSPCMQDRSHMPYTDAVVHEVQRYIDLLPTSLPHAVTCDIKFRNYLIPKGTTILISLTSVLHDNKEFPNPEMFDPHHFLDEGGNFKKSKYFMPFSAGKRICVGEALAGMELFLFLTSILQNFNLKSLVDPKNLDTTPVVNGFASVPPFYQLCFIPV
Method: as §1, §3

[9] = Microsomal stability, mouse microsomes (CEREP); assay type: in vitro ADME; conditions: 0.1 μM, 0.1 mg/mL microsomal protein
Method: as §1, §2

[10] = molecular target: CYP2D6 (Homo sapiens, UniProt P10635); assay: CYP inhibition CYP2D6 (CEREP); assay type: in vitro ADME; conditions: single concentration (typically 10 μM)
CYP2D6, sequence (P10635 whole entry): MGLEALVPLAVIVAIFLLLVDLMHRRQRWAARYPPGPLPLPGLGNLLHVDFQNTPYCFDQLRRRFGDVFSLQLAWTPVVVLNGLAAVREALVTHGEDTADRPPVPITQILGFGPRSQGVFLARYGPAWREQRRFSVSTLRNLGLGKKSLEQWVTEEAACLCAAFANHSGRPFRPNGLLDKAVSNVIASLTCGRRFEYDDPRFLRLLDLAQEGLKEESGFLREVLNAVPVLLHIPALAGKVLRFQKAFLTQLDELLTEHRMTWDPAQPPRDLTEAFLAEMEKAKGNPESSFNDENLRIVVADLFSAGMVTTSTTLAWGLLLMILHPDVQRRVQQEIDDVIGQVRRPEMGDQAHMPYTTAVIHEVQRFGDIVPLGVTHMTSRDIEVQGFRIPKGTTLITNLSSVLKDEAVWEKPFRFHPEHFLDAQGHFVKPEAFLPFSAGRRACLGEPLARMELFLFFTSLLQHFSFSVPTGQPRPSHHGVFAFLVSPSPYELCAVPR
Method: as §1, §3

[11] = test system: multiple sclerosis model; conditions: administered by injection; cited from earlier work

Cc1ccc([C@@H](NC(=O)Cc2ccc3oc([C@@H](O)c4c(C)noc4C)cc3c2)c2ccccc2)c(C)c1 [TMP778]
efficacy in psoriasis model [1]: efficacious

Ustekinumab: anti-p40 monoclonal antibody that targets Th17 and Th1 through IL-23 and IL-12
clinical efficacy in refractory Crohn diseased patients [2]: clinical (phase IIb) efficacy

Cc1ccc(C(NC(=O)Cc2ccc3oc(C(O)c4c(C)noc4C)cc3c2)c2ccccc2)c(C)c1 (single isomer, unassigned) [Cpd. T-4, 2-(2-(hydroxy(3,5-dimethylisoxazol-4-yl)methyl)benzofuran-5-yl)-N-((2,4-dimethylphenyl)(phenyl)methyl)acetamide, reference compound]
EAE clinical score ([3]; daily by gavage, Cpd. 1 at 3 and 10 mg/Kg, T4 compound at 1 and 10 mg/kg): wasn't effective | Human microsomes (% Cpd. remaining at 60 min) [4]: 0% | inhibition at 10 µM ([5]; human, recombinant CYP3A4, probe 7-benzyloxy-4-trifluoromethylcoumarin, read-out: CYP 3A4 (% inhibition of Control)): 82% | CYP 1A2 (% inhibition of Control) [6]: −3% | inhibition at 10 µM ([7]; human, recombinant CYP2C19, probe 3-cyano-7-ethoxycoumarin, read-out: CYP 2C19 (% inhibition of Control)): 85% | inhibition at 10 µM ([8]; human, recombinant CYP2C9, human recombinant CYP, read-out: CYP 2C9 (% inhibition of Control)): 73% | Mouse microsomes (% Cpd. remaining at 60 min) [9]: 0% | inhibition at 10 µM ([10]; human, recombinant CYP2D6, human recombinant CYP, read-out: CYP 2D6 (% inhibition of Control)): 31%

Cc1ccc(C(NC(=O)Cc2ccc3oc(C(O)c4c(C)noc4C)cc3c2)c2ccccc2)c(C)c1 (centres unmarked) [compound T, 2-(2-(hydroxy(3,5-dimethylisoxazol-4-yl)methyl)benzofuran-5-yl)-N-((2,4-dimethylphenyl)(phenyl)methyl)acetamide, reference compound]
onset of EAE ([3]; administered p/os (orally) for 20 days): ineffective | efficacy in psoriasis model [1]: efficacious

CC(=O)Nc1nc(C)c(S(=O)(=O)Nc2ccc(C(O)(C(F)(F)F)C(F)(F)F)cc2)s1 [SR1001]
efficacy in multiple sclerosis model [11]: efficacious

Cc1ccc(C(NC(=O)Cc2ccc3oc(C(O)c4c(C)noc4C)cc3c2)c2ccccc2)c(C)c1 (single isomer, unassigned) [Cpd. T-3, 2-(2-(hydroxy(3,5-dimethylisoxazol-4-yl)methyl)benzofuran-5-yl)-N-((2,4-dimethylphenyl)(phenyl)methyl)acetamide, reference compound]
Human microsomes (% Cpd. remaining at 60 min) [4]: 0% | CYP 3A4 (% inhibition of Control) ([5]; human recombinant CYP): 93% | CYP 1A2 (% inhibition of Control) [6]: −5% | CYP 2C19 (% inhibition of Control) ([7]; human recombinant CYP): 92% | CYP 2C9 (% inhibition of Control) ([8]; human recombinant CYP): 75% | Mouse microsomes (% Cpd. remaining at 60 min) [9]: 0% | CYP 2D6 (% inhibition of Control) ([10]; human recombinant CYP): 19%
